Assay results taken from ChEMBL document CHEMBL1201862, “PubChem BioAssay data set” (2004).
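Protocol summary: plate cells (96-well), add compound at 5 concentrations, incubate 48 h, interpolate endpoints linearly. GI50 marks 50% less growth.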 Active and inactive are the calls of the source. No stated cut-off is given here; in the data, active = GI50 up to about 1.1 µM and inactive = higher.

How the values were obtained:
Assay in all cases: DTP human tumour cell line panel, 48 h
[1] = system: LOX IMVI
[2] = system: EKVX
[3] = system: SK-OV-3
[4] = system: SF-268
[5] = system: NCI-H23
[6] = system: HCC 2998
[7] = system: OVCAR-3
[8] = system: SF-539
[9] = system: SNB-75
[10] = system: HT-29
[11] = system: RXF 393
[12] = system: NCI-H522
[13] = system: KM12
[14] = system: K562
[15] = system: SF-295
[16] = system: A549
[17] = system: OVCAR-8
[18] = system: SK-MEL-5
[19] = system: COLO 205
[20] = system: SW-620

Measured: GI50

COC(=O)C1=C(O)C(C(=O)OC)[C@@]2(O)[C@@H](C(=O)OC)CC[C@@H]1[C@@H]2C(=O)OC (stereo not given in full)
inactive: [1] 21.3 µM | [2] 23 µM | [3] 19.2 µM | [4] 29.4 µM | [5] 17.8 µM | [6] 16.4 µM | [7] 21.3 µM | [8] 18.6 µM | [9] 17.9 µM | [10] > 100 µM | [11] 12.2 µM | [12] 10.6 µM | [13] 21.6 µM | [14] 25.4 µM

Cn1cnc(/C=C/C#N)c1
inactive: [15] > 100 µM | [2] > 100 µM | [3] > 100 µM | [16] > 100 µM | [4] > 100 µM | [17] > 100 µM | [5] > 100 µM | [6] > 100 µM | [7] > 100 µM | [8] > 100 µM | [18] > 100 µM | [9] > 100 µM | [10] > 100 µM | [11] > 100 µM | [19] > 100 µM | [12] > 100 µM | [13] > 100 µM | [14] > 100 µM | [20] > 100 µM

CCOC(=O)/C(=N/Nc1ccc(C)cc1)N1C(=S)N(C)N=C(C)C=C1S
inactive: [15] 19.1 µM | [2] > 100 µM | [3] 55.6 µM | [16] > 100 µM | [4] 33.8 µM | [17] 75 µM | [5] 94.4 µM | [6] > 100 µM | [7] > 100 µM | [8] > 100 µM | [18] > 100 µM | [9] 29.3 µM | [10] > 100 µM | [11] 41.7 µM | [19] > 100 µM | [12] > 100 µM | [13] > 100 µM | [14] > 100 µM | [20] > 100 µM

COc1cc2c(cc1OC)C1Cc3sccc3CN1CC2 (stereo not given)
inactive: [15] > 100 µM | [1] > 100 µM | [2] > 100 µM | [3] > 100 µM | [16] > 100 µM | [4] > 100 µM | [17] > 100 µM | [5] > 100 µM | [6] > 100 µM | [7] > 100 µM | [8] > 100 µM | [18] > 100 µM | [9] > 100 µM | [10] > 100 µM | [11] > 100 µM | [12] > 100 µM | [14] > 100 µM | [20] > 100 µM
